Here are results for four molecules from paper PMC9298254 (Chembiochem, 2021).

For assay [1], the system named is ETBR-GFP. The experiment in a line: Ca2+ flux, COS-7, ETBR-GFP co-transfected with other GPCRs. The assay is classed as cell-based. The settings on record: mock+sitaxentan vs mock+vehicle (no ETAR expression).
In assay [2] the test system is ETAR. Particulars: competitive antagonist; ref [36]; cited from earlier work.
Assay [3] concerns ETBR. Particulars: competitive antagonist; ref [36]; cited from earlier work.
In assay [4] the test system is Cys-P1-tagged GPCR. As to the kind of experiment: peptide-templated labeling of Cys-P1-tagged GPCRs in live HEK293 cells. It counts as cell-based. Particulars: n=3; for fluorescent labeling: Cys-P1-ETAR-GFP, 200 nM probe.
Assay [5] concerns Cys-P3-tagged GPCR. As to the kind of experiment: peptide-templated labeling of Cys-P3-tagged GPCRs in live HEK293 cells. It counts as cell-based. Particulars: n=3; for fluorescent labeling: 200 nM probe.

Consider `Cc1cc2c(cc1CC(=O)c1sccc1S(=O)(=O)Nc1onc(C)c1Cl)OCO2` [sitaxentan], for which, in assay [1], the “effect on ET-1 efficacy and potency at ETBR” value was “No differences in both ligand efficacy and potency”. Also, the IC50 in assay [2] was approximately 0.001 µM; in assay [3], approximately 10 µM.
For “KIAQLKE KNAALKE KNQQLKE KIQALKY [TAMRA‐P2, 6‐carboxytetramethyl‐rhodamine (TAMRA)‐P2]”, the fluorescent labeling result in assay [4] is reported as “successfully labeled”. In addition, in assay [4] (Cys-P1-ETBR-GFP), the “labeling with complementary probe” value was “Rapid TAMRA staining within 5 min”. Also, the cross-reactivity labeling result in assay [5] (Cys-P3-ETAR-GFP with non-complementary probe) is recorded as “no successful TAMRA labeling was detectable”.
As to “KIAQLKQ KIQALKQ ENQQLEE ENAALEY [TAMRA‐P4]”, the cross-reactivity labeling result in assay [4] (Cys-P1-ETBR-GFP with non-complementary probe) is “no successful TAMRA labeling was detectable”. Besides, in assay [5] (Cys-P3-ETAR-GFP), the fluorescent labeling entry was “successfully labeled” and the “labeling with complementary probe” value was “Rapid TAMRA staining within 5 min”.
Turning to TAMRA‐MPAA‐GSGSG, the fluorescent labeling entry in assay [4] and in assay [5] (Cys-P3-ETAR-GFP) was “no labeling of GFP‐positive cells was detectable” in each case.
